Assay results from patent US20030187007A1, “Inhibitors of protein kinase for the treatment of disease” (priority 2001, published 2003).
Counter-ions that a name gives are not always drawn.

Legend:
[1] = molecular target: CDK2 complexed with cyclin A (Homo sapiens, UniProt P24941); test: Cyclin dependent kinase activity assay, phosphorylation of synthetic peptide PKTPKKAKKLRRR; assay type: biochemical; settings: 0.1 mM ATP, read-out: CDK 2 Activity*
Protocol: (§1) The assay of cyclin dependent kinase activity was determined by monitoring the phosphorylation of a synthetic peptide, PKTPKKAKKLRRR. The assay mixture contained 0.1 mM cold ATP, ^33P-γ-ATP (2000-4000 cpm/μL), 0.1 mM peptide, 1 mM DTT, and 10 mM MgCl2 in 100 mM HEPES buffer pH 7.4. The assay mixture, along with inhibitor and CDK enzyme (0.3-0.4 U/mL; either CDK5 complexed with p25, CDK2 complexed with complexed with cyclin A), was mixed together in a microtiter plate in a final volume of 40 μL, sealed and incubated for 2 hours at 30° C. Following incubation, a 15 μL aliquot was added to a Whatman P81 filtration plate containing 100 μL 0.5% phosphoric acid. This mixture was allowed to stand for 5 minutes prior to filtration on a vacuum manifold. The filter plate was washed with 5 successive additions of 300 μL 0.5% phosphoric acid. The filtration plate was air dried for 10 minutes before sealing the bottom. After addition of scintillation fluid to the sealed plate, phosphorylated peptide was quantified in a scintillation counter.

CDK5 complexed with p25 = CDK5 complexed with p25 (Homo sapiens, UniProt Q00535); test: as above; assay type: biochemical; settings: CDK5 complexed with p25, 0.1 mM ATP; read-out: CDK 5 Activity*
Protocol: as §1

Sequence of CDK5 complexed with p25 (Q00535 whole entry): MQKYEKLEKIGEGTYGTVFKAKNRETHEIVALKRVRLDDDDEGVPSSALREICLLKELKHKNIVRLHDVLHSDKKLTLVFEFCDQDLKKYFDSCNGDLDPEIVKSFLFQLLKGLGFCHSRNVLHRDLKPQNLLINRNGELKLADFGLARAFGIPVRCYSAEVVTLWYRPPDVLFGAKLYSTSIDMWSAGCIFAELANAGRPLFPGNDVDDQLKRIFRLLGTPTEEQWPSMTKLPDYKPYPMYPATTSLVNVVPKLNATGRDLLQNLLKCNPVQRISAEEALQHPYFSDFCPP
Sequence of CDK5 complexed with p25 (Q15078 99-307 partner limits assumed): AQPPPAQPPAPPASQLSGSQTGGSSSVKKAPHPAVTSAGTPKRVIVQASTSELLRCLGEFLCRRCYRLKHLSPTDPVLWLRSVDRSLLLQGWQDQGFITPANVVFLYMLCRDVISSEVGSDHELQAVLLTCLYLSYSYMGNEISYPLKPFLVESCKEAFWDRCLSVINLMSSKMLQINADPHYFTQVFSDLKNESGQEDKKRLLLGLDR

Row | Structure (SMILES) | IC50 [1] [nM] | IC50 (CDK5 complexed with p25) [nM]
1 | NC(=S)N/N=C/c1cc(-c2ccncc2)ccc1O [Example 30, 5-(4-Pyridyl)salicylaldehyde thiosemicarbazone] | 2000 to 5000 | < 500
2 | Nc1nc(-c2cc(-c3ccc(O)cc3)ccc2O)cc(N2CCCC2CO)n1 (stereo not drawn) [Example 79, 3-[2-Amino-6-(2R-hydroxymethyl-pyrrolidin-1-yl)-pyrimidin-4-yl]-biphenyl-4.4′-diol] | < 500 | 
3 | NC(=O)N/N=C/c1cc(Br)ccc1O [Example 3, 5-Bromosalicylaldehyde semicarbazone hydrochloride] | 2000 to 5000 | 500 to 2000
4 | Nc1ccc(-c2ccc(O)c(-c3ccnc(N)n3)c2)cn1 [Example 65, 4-(6-Amino-pyridin-3-yl)-2-(2-amino-pyrimidin-4-yl)-phenol] | < 500 | 500 to 2000
5 | NC(=S)N/N=C/c1cc(-c2ccc(Cl)s2)ccc1O [Example 35, 5-[2-(5-Chloro-thienyl)]salicylaldehyde thiosemicarbazone] | 500 to 2000 | > 5000
6 | Nc1nc(NCCCCCO)cc(-c2cc(-c3ccc(O)cc3)ccc2O)n1 [Example 77, 3-[2-Amino-6-(5-hydroxy-pentylamino)-pyrimidin-4-yl]-biphenyl-4,4′-diol] | < 500 | < 500
7 | Nc1nccc(-c2cc(-c3c[nH]c(=O)[nH]c3=O)ccc2O)n1 [Example 70, 5-[3-(2-Amino-pyrimidin-4-yl)-4-hydroxy-phenyl]-1 H-pyrimidine-2.4-dione] | > 5000 | 2000 to 5000
8 | NC(=S)N/N=C/c1cc(Br)ccc1O [Example 2, 5-Bromosalicylaldehyde thiosemicarbazone] | 2000 to 5000 | 500 to 2000
9 | COC(=O)c1cccc(-c2ccc(O)c(/C=N/NC(N)=O)c2)c1 [Example 13, 5-(3-Methoxycarbonylphenyl)salicylaldehyde semicarbazone hydrochloride] | 2000 to 5000 | > 5000
10 | NC(=S)N/N=C/c1cc(-c2cccc(C(=O)O)c2)ccc1O [Example 17, 5-(3-Carboxyphenyl)salicylaldehyde thiosemicarbazone] | 500 to 2000 | 2000 to 5000
11 | Nc1nc(NCC(O)CO)cc(-c2cc(-c3ccc(O)cc3)ccc2O)n1 (stereo not shown) [Example 56, 3-[2-Amino-6-(2,3-dihydroxy-propylamino)-pyrmidin-4-yl]-biphenyl-4,4′-diol] | < 500 | < 500
12 | N#Cc1cccc(-c2ccc(O)c(/C=N/NC(N)=S)c2)c1 [Example 7, 5-(3-Cyanophenyl)salicylaldehyde thiosemicarbazone] | > 5000 | 2000 to 5000
13 | Nc1cnc(-c2cc(-c3ccc(O)cc3)ccc2O)nc1N [Example 51, 3-(4,5-Diamino-pyrimidin-2-yl)-biphenyl-4,4′-diol] | < 500 | < 500
14 | NC(=S)N/N=C/c1cc(/C=C/C(=O)O)ccc1O [Example 38, 3-Formyl-4-hydroxycinnamic acid, thiosemicarbazone] | < 500 | < 500
15 | Nc1nccc(-c2c(O)ccc3ccccc23)n1 [Example 46, 2-Amino-4-[1-(2-hydroxynaphthyl)]pyrimidine] | > 5000 | 2000 to 5000
16 | COc1ccc(-c2ccc(O)c(/C=N/NC(N)=S)c2)cc1F [Example 14, 5-(3-Fluoro-4-methoxyphenyl)salicylaldehyde thiosemicarbazone] | 2000 to 5000 | 500 to 2000
17 | NC(=S)N/N=C/c1cc(-c2cncnc2)ccc1O [Example 32, 5-(5-Pyrimidyl)salicylaldehyde thiosemicarbazone] | 2000 to 5000 | 2000 to 5000
18 | NC(=S)N/N=C/c1cc(-c2cccc(F)c2)ccc1O [Example 15, 5-(3-Fluorophenyl)salicylaldehyde thiosemicarbazone] | 500 to 2000 | 500 to 2000
19 | NC(=O)N/N=C/c1c(O)ccc2ccccc12 [Example 41, 2-[(2-Hydroxy-1-naphthyl)methylidene]hydrazine-1-carbamide hydrochloride] | < 500 | < 500
20 | NC(=S)N/N=C/c1cc(-c2ccc(CO)cc2)ccc1O [Example 10, 5-(4-Hydroxymethylphenyl)salicylaldehyde thiosemicarbazone] | > 5000 | > 5000
21 | Nc1nccc(-c2cc(-c3ccc[nH]3)ccc2O)n1 [Example 69, 2-(2-Amino-pyrimidin-4-yl)-4-(1H-pyrrol-2-yl)-phenol] | < 500 | < 500
22 | NC(=S)N/N=C/c1cc(-c2cccc(CO)c2)ccc1O [Example 8, 5-(3-Hydroxymethylphenyl)salicylaldehyde thiosemicarbazone] | > 5000 | > 5000
23 | Nc1ccc(-c2cc(-c3ccc(O)cc3)ccc2O)nc1 [Example 48, 3-(5-Amino-pyridin-2-yl)-biphenyl-4,4′-diol] | < 500 | < 500

Row | Structure (SMILES) | IC50 [1] [nM] | IC50 (CDK5 complexed with p25) [nM]
24 | Nc1nccc(-c2ccc(O)c(-c3ccnc(N)n3)c2)n1 [Example 68, 2,4-Bis-(2-amino-pyrimidin-4-yl)-phenol] | < 500 | < 500
25 | NC(=S)N/N=C/c1cc(-c2ccsc2)ccc1O [Example 34, 5-(3-Thienyl)salicylaldehyde thiosemicarbazone] | < 500 | 500 to 2000
26 | NC(=S)N/N=C/c1cc(-c2ccc(O)cc2)c(O)cc1O [Example 28, 4-Hydroxy-5-(4-hydroxyphenyl)salicylaldehyde thiosemicarbazone] | 500 to 2000 | 2000 to 5000
27 | NC(=S)N/N=C/c1cc(-c2ccc(C(=O)O)cc2)ccc1O [Example 19, 5-(4-Carboxyphenyl)salicylaldehyde thiosemicarbazone] | > 5000 | < 500
28 | NC(=S)N/N=C/c1cc(-c2ccccc2)ccc1O [Example 4, 5-Phenylsalicylaldehyde thiosemicarbazone] | 500 to 2000 | < 500
29 | Cc1cc(-c2cc(-c3ccnc(N)n3)ccc2O)nc(N)n1 [Example 72] | < 500 | 
30 | Cc1cc(-c2cc(-c3ccc(O)cc3)ccc2O)nc(N)n1 [Example 47, 3-(2-Amino-6-methyl-pyrimidin-4-yl)-biphenyl-4,4′-diol] | < 500 | < 500
31 | Nc1nccc(-c2ccc(O)c(-c3cc(Cl)nc(N)n3)c2)n1 [Example 73, 2-(2-Amino-4-chloro-pyrimidin-6-yl)-4-(2-aminopyrimidin-4-yl)-phenol] | < 500 | 
32 | NC(=S)N/N=C/c1cc2ccc(O)cc2cc1O [Example 43] | < 500 | < 500
33 | Nc1nccc(-c2cc(-c3ccncc3)ccc2O)n1 [Example 62, 2-(2-Amino-pyrimidin-4-yl)-4-pyridin-4-yl-phenol] | < 500 | < 500
34 | NC(=S)N/N=C/c1cc(-c2ccc(O)cc2)ccc1O [Example 21, 5-(4-Hydroxyphenyl)salicylaldehyde thiosemicarbazone] | < 500 | < 500
35 | NC(=O)N/N=C/c1cc(-c2ccccc2)ccc1O [Example 5, 5-Phenylsalicylaldehyde semicarbazone hydrochloride] | 500 to 2000 | < 500
36 | NC(=S)N/N=C/c1cc(-c2cccnc2)ccc1O [Example 31, 5-(3-Pyridyl)salicylaldehyde thiosemicarbazone] | 500 to 2000 | < 500
37 | NC(=S)N/N=C/c1cc(-c2ccc(O)cc2O)ccc1O [Example 27, 5-(2,4-Dihydroxyphenyl)salicylaldehyde thiosemicarbazone] | < 500 | < 500
38 | NC(=S)N/N=C/c1cc(-c2cccs2)ccc1O [Example 33, 5-(2-Thienyl)salicylaldehyde thiosemicarbazone] | < 500 | 500 to 2000
39 | Nc1ncc(-c2ccc(O)c(-c3ccnc(N)n3)c2)cn1 [Example 66, 2-(2-Amino-pyrimidin-4-yl)-4-(2-amino-pyrimidin-5-yl)-phenol] | 500 to 2000 | 500 to 2000
40 | Nc1cccc(-c2cc(-c3ccnc(N)n3)ccc2O)n1 [Example 71, 2-(2-Aminopyridin-6-yl)-4-(2-aminopyrimidin-4-yl)-phenol] | < 500 | < 500
41 | COc1cc(-c2cc(-c3ccc(O)cc3)ccc2O)nc(N)n1 [Example 50, 3-(2-Amino-6-methoxy-pyrimidin-4-yl)-biphenyl-4,4′-diol] | < 500 | < 500
42 | NC(=S)N/N=C/c1cc(CCC(=O)O)ccc1O [Example 40, 3-(3-Formyl-4-hydroxyphenyl)propionic acid, thiosemicarbazone] | < 500 | < 500
43 | NC(=S)N/N=C/c1cc(-c2ccc(F)cc2)ccc1O [Example 16, 5-(4-Fluorophenyl)salicylaldehyde thiosemicarbazone] | 2000 to 5000 | 500 to 2000
44 | NC(=S)N/N=C/c1cc(-c2cccc(O)c2)ccc1O [Example 20, 5-(3-Hydroxyphenyl)salicylaldehyde thiosemicarbazone] | 500 to 2000 | < 500
45 | Nc1cccc(-c2cc(-c3ccc(O)cc3)ccc2O)n1 [Example 49, 3-(6-Amino-pyridin-2-yl)-biphenyl-4,4′-diol] | < 500 | < 500
46 | Nc1cc(-c2cc(-c3ccnc(N)n3)ccc2O)nc(N)n1 [Example 74, 2-(2,4-Diamino-pyrimidin-6-yl)-4-(2-aminopyrimidin-4-yl)-phenol] | < 500 | 
